Several values for one entry are separate records, joined by “and”; a condition that tells them apart may be missing. Equal values may be shown once. Where a name gives a salt, the structure may show the parent alone. Read-outs that look alike come from different tables or passages of the source.
Key:
[1] = Example 4: multiple dose steady-state dose proportionality study, tramadol injection 50/100 mg IV and Ultram tablet 50/100 mg oral q6h; assay type: in vivo, human; details: for Cmax, tramadol, Mean ± SD / Cmin, tramadol, Mean ± SD / Tmax, tramadol, Mean ± SD: steady-state, healthy volunteers
Description: The study was an open-label, single-period, randomized, parallel treatment design. Subjects received study drug every 6 hours beginning on the morning of Day 1 and ending on the morning of Day 3. The first dose on Day 1 and the last dose on Day 3 were administered after a minimum 10 hour fast.

[2] = standard in vitro and in vivo studies; cited from earlier work
[3] = tramadol single […] [100 mg] p.o., humans N=12 male; cited from earlier work
[4] = test system: rats and dogs; details: repeat-dose toxicity; cited from earlier work
[5] = loading doses up to 150 mg IV, postoperative; cited from earlier work
[6] = after oral administration; cited from earlier work
[7] = test system: experienced opioid abusers; details: cited from earlier work
[8] = cited from earlier work; for CL/F (total clearance): humans n=10 male
[9] = test system: patients undergoing abdominal surgery; details: cited from earlier work
[10] = cited from earlier work
[11] = Example 1: multiple-dose randomized 3-way crossover PK study of two IV tramadol regimens vs 100 mg oral q6h; details: for theoretical accumulation factor: 1/[1-exp(−ln 2*tau/T1/2)], T1/2 approximately […]
Description: A fitted curve was obtained because the second oral peak was not measured in the study. For the modeling portion of the analysis, a validated Phoenix® WinNonlin® program version 6.4 (Certara) was used for PK analysis, simulation, graphics, tables and statistical calculations. […] For purposes of nonlinear regression, the data were weighted as 1/observed. Predicted concentration-time data were calculated based on the individual fitted PK parameters.

[12] = Tramadol dosed as 50 mg IV every 6 hours
[13] = Tramadol dosed as 100 mg IV every 6 hours
[14] = Tramadol dosed as Oral (Ultram tablet) every 6 hours

For `COc1cccc([C@]2(O)CCCC[C@H]2CN(C)C)c1` (racemic) [Tramadol, (±)cis-2-[(dimethylamino)methyl]-1-(3-methoxyphenyl) cyclohexanol hydrochloride], which “Cmax, tramadol, Mean ± SD” value [1, 12] is on record?
The value was 541 ± 126 ng/mL.

And the “Cmin, tramadol, Mean ± SD” value [1, 12]?
Its value is 203 ± 50 ng/mL.

What about the “Tmax, tramadol, Mean ± SD” value [1, 12] of the same molecule?
The value was 0.375 ± 0.189 h.

And the “Cmin, tramadol, Mean ± SD” value ([1]; Tramadol dosed as 50 mg Oral (Ultram tablet) every 6 hours)?
Its value is 213 ± 93 ng/mL.

What about the “Cmax, tramadol, Mean ± SD” value [1, 13] of the same molecule?
Its value is 1250 ± 236 ng/mL.

What about the “Cmin, tramadol, Mean ± SD” value [1, 13] of the same molecule?
The value was 539 ± 172 ng/mL.

And the “Tmax, tramadol, Mean ± SD” value [1, 13]?
The value was 0.406 ± 0.442 h.

What about the “Cmax, tramadol, Mean ± SD” value [1, 14] of the same molecule?
Its value is 703 ± 210 ng/mL.

And the “Cmin, tramadol, Mean ± SD” value [1, 14]?
Its value is 405 ± 151 ng/mL.

What about the AUC ([1]; human, plasma, iv, 50 mg) of the same molecule?
Its AUC is 1970 ± 453 ng·h/mL.

And the AUC(0-inf) ([1]; human, plasma, iv, 50 mg)?
The AUC(0-inf) was 4040 ± 1060 ng·h/mL.

What about the AUC(0-t) ([1]; human, plasma, iv, 50 mg) of the same molecule?
Its AUC(0-t) is 4010 ± 1050 ng·h/mL.

And the AUC ([1]; human, plasma, iv, 100 mg)?
Its AUC is 4730 ± 1240 ng·h/mL.

What about the AUC(0-inf) ([1]; human, plasma, iv, 100 mg) of the same molecule?
The AUC(0-inf) was 11400 ± 4540 ng·h/mL.

And the AUC(0-t) ([1]; human, plasma, iv, 100 mg)?
Its AUC(0-t) is 11200 ± 4270 ng·h/mL.

What about the AUC(0-inf) ([1]; human, plasma, po, 50 mg) of the same molecule?
The AUC(0-inf) was 4450 ± 2110 ng·h/mL.

What about the AUC(0-t) ([1]; human, plasma, po, 50 mg) of the same molecule?
The AUC(0-t) was 4360 ± 2030 ng·h/mL.

What about the Cmax ([1]; human, plasma, po, 50 mg) of the same molecule?
Its Cmax is roughly 368 ng/mL.

What about the AUC(0-t) ([1]; human, plasma, po, 100 mg) of the same molecule?
The AUC(0-t) was 8660 ± 4260 ng·h/mL.

What about the genotoxic potential [2] of the same molecule?
Its genotoxic potential is “no evidence of genotoxic potential”.

What about the AUC [3] of the same molecule?
The AUC was 2177 ± 722 ng·h/mL.

What about the Cmax [3] of the same molecule?
Its Cmax is 274 ± 75 ng/mL.

And the Tmax [3]?
The Tmax was 1.6 ± 0.5 h.

What about the t1/2 [3] of the same molecule?
Its t1/2 is 5.9 ± 0.7 h.

What about the “doses with behavioral/clinical signs and convulsions” value [4] of the same molecule?
Its value is greater than 25 mg/kg/day.

And the serious adverse effects [5]?
Its serious adverse effects is “not associated with any serious adverse effects”.

And the “fertility or teratogenic effects” value [6]?
The value was “no safety concerns”.

What about the seizure ([7]; 200 mg IV administered over 5 minutes) of the same molecule?
The seizure was “No seizures were observed”.

And the seizure ([7]; 300 mg IV delivered over 2.5 minutes)?
The seizure was “seizure was observed”.

And the seizure ([7]; 700 mg IV administered over 1 minute)?
The seizure was “seizure was observed”.

What about the “ratings of “liking”” value ([7]; tramadol 100 and 200 mg IV, morphine 10 and 20 mg IV, over 5 minutes, 10 experienced opioid abusers) of the same molecule?
Its value is “neither dose of tramadol increased ratings”.

And the “ratings of “feel drug effect” compared to placebo” value ([7]; tramadol 100 and 200 mg IV, morphine 10 and 20 mg IV, over 5 minutes)?
Its value is “significantly increased”.

And the “ratings on the ARCI-MBG scale” value ([7]; tramadol 100 and 200 mg IV, morphine 20 mg IV)?
Its value is “neither dose of tramadol increased ratings”.

What about the “absolute bioavailability of the oral dose” value ([8]; 100 mg PO vs IV, based on AUC values, hydrochloride) of the same molecule?
Its value is 68±13% and 68%.

What about the first pass metabolism ([8]; 100 mg PO, estimated) of the same molecule?
Its first pass metabolism is roughly 20%.

And the “estimated absorption of the oral dose” value ([8]; 100 mg PO)?
The value was 86-88%.

What about the “CL/F (total clearance)” value ([8]; 100 mg i.v., hydrochloride) of the same molecule?
Its value is 467 ± 124 mL/min.

What about the “CL/F (total clearance)” value ([8]; 100 mg i.v., listed as tramadol, hydrochloride) of the same molecule?
The value was 710 ± 174 mL/min.

And the “time to peak serum concentration (tmax)” value ([8]; 100 mg oral dosing)?
Its value is “approximately 2 hours”.

What about the “CL/F (total clearance)” value ([8]; 100 mg p.o., hydrochloride) of the same molecule?
Its value is 710 ± 174 mL/min.

And the “CL/F (total clearance)” value ([8]; 100 mg p.o., listed as tramadol, hydrochloride)?
The value was 467 ± 124 mL/min.

What about the “patients reporting adverse events” value ([9]; both groups (infusion and bolus)) of the same molecule?
Its value is 25%.

And the “effects on blood pressure or heart rate” value ([9]; infusion and bolus groups)?
Its value is “no significant effects”.

What about the absolute bioavailability ([10]; oral, continuous dosing (Liao et al., 1992)) of the same molecule?
The absolute bioavailability was 90-100%.

And the “increase of elimination half-life” value ([10]; subjects with renal or hepatic impairment)?
The value was “approximately 2 fold”.

And the “predicted exposure over 12 h at steady state” value (“predicted exposure over 12 h” below) ([11]; 50 mg IV q4h, 3 x AUCtau n)?
Its value is 6684 ng·h/mL.

What about the “RAC(trough)” value ([11]; 50 mg IV regimen (h 0, 2, 4, then q4h to h 44), mean) of the same molecule?
Its value is 2.1937.

And the Css ([11]; 50 mg IV regimen (h 0, 2, 4, then q4h to h 44), plasma, mean)?
Its Css is 557 ng/mL.

And the “predicted exposure over 12 h” value ([11]; 75 mg IV q6h, 2 x AUCtau n)?
The value was 6072 ng·h/mL.

And the “RAC(trough)” value ([11]; 75 mg IV regimen (h 0, 3, 6, then q6h to h 42), mean)?
The value was 1.5026.

And the Css ([11]; 75 mg IV regimen (h 0, 3, 6, then q6h to h 42), plasma, mean)?
The Css was 506 ng/mL.

What about the AUC24-48 ([11]; 75 mg IV regimen (h 0, 3, 6, then q6h to h 42), plasma, mean, hydrochloride) of the same molecule?
The AUC24-48 was 9402 ng·h/mL.

And the “predicted exposure over 12 h” value ([11]; 100 mg PO q6h, 2 x AUCtau n)?
Its value is 6950 ng·h/mL.

And the “RAC(trough)” value ([11]; 100 mg oral q6h to h 42, mean)?
Its value is 2.5580.

And the Css ([11]; 100 mg oral q6h to h 42, plasma, mean)?
The Css was 579 ng/mL.

And the theoretical accumulation factor ([11]; 4-h dosing interval)?
The theoretical accumulation factor was 2.42.

What about the theoretical accumulation factor ([11]; 6-h dosing interval) of the same molecule?
The theoretical accumulation factor was 1.82.

What about the AUC(0-t) ([11]; human, plasma, iv, 50 mg, AUC0-24, 50 mg IV regimen (h 0, 2, 4, then q4h to h 44), plasma, mean) of the same molecule?
The AUC(0-t) was 9520 ng·h/mL.

What about the AUC(0-t) ([11]; human, plasma, iv, 50 mg, AUC0-48, 50 mg IV regimen (h 0, 2, 4, then q4h to h 44), plasma, mean) of the same molecule?
The AUC(0-t) was 20500 ng·h/mL.

And the AUC ([11]; human, plasma, iv, 50 mg, AUC24-48, 50 mg IV regimen (h 0, 2, 4, then q4h to h 44), plasma, mean)?
The AUC was 11000 ng·h/mL.

And the AUC ([11]; human, plasma, iv, 50 mg, AUCtau 1, 50 mg IV regimen (h 0, 2, 4, then q4h to h 44), first dosing interval, mean)?
Its AUC is 624 ng·h/mL.

And the AUC ([11]; human, plasma, iv, 50 mg, AUCtau n, 50 mg IV regimen (h 0, 2, 4, then q4h to h 44), last dosing interval, mean)?
Its AUC is 2230 ng·h/mL.

And the concentration at 2 h ([11]; human, plasma, iv, 50 mg, C2, 50 mg IV regimen (h 0, 2, 4, then q4h to h 44), plasma, mean)?
Its concentration at 2 h is 203 ng/mL.

What about the concentration at 48 h ([11]; human, plasma, iv, 50 mg, C48 (T48), 50 mg IV regimen (h 0, 2, 4, then q4h to h 44), plasma, mean) of the same molecule?
The concentration at 48 h was 448 ng/mL.

What about the concentration at 1 h ([11]; human, plasma, iv, 50 mg, C1 h, 50 mg IV regimen (h 0, 2, 4, then q4h to h 44), plasma, mean) of the same molecule?
Its concentration at 1 h is 243 ng/mL.

What about the Cmax ([11]; human, plasma, iv, 50 mg, Cmax(0-2), 50 mg IV regimen (h 0, 2, 4, then q4h to h 44), first dose, plasma, mean) of the same molecule?
The Cmax was 294 ng/mL.
